From US11541120B2, “Phosphonium-based ionic drug conjugates” (Anthos Partners, LP, priority 2017, dated 2023)
≈ marks a conversion by molar mass, not a printed value.

Test system: not listed separately
Assay: Caco-2 cell permeability
Conditions: human, Caco-2

| Molecule | Papp A→B [×10⁻⁶ cm/s] | Papp B→A [×10⁻⁶ cm/s] | efflux ratio |
| --- | --- | --- | --- |
| CC[C@H]1[C@@H](O)[C@@H]2[C@H](CC[C@]3(C)[C@@H]([C@H](C)CCC(=O)O)CC[C@@H]23)[C@@]2(C)CC[C@@H](O)C[C@@H]12 [Obeticholic acid, reference compound] | 32.6 | 3.23 | 0.0989 |
| O=C(O)Cc1ccccc1Nc1c(Cl)cccc1Cl [Diclofenac, reference compound] | 34.5 | 13.5 | – |
| CC(C)Cc1ccc(C(C)C(=O)O)cc1 (centres unmarked) [Ibuprofen, reference compound] | 40.5 | 19 | – |

Test system: Caco-2
Assay: Caco-2 cell permeability
Conditions: No Inhibitor

| Molecule | Mean (B-A/A-B) Efflux Ratio | Mean Papp A-B | Mean Papp B-A |
| --- | --- | --- | --- |
| Obeticholic acid-TPMP | 0.103 | 20.5 10^−6 cm/s | 2.11 10^−6 cm/s |
| CC(C)Cc1ccc(C(C)C(=O)[O-])cc1.COC1=C(OC)C(=O)C(CCCCCCCCCC[P+](c2ccccc2)(c2ccccc2)c2ccccc2)=C(C)C1=O [Ibuprofen-MitoQ, Ibuprofen MitoQ conjugate] | 0.467 | 52.1 10^−6 cm/s | 24.3 10^−6 cm/s |
| CCC1C(O)C2C3CCC(C(C)CCC(=O)[O-])C3(C)CCC2C2(C)CCC(O)CC12.COC1=C(OC)C(=O)C(CCCCCCCCCC[P+](c2ccccc2)(c2ccccc2)c2ccccc2)=C(C)C1=O [Obeticholic acid-MitoQ] | 0.0872 | 18.9 10^−6 cm/s | 1.65 10^−6 cm/s |

Test system: not listed separately
Assay: Partition coefficient octanol/PBS (LogD7.4)
Format: physicochemical
Conditions: 100 μM in PBS shaken with octanol
Protocol: (§1) The water solubilties and partition coefficients of the PBICs were measured and compared to the values of the therapeutic agent by itself. To determine the partition coefficient Log D7.4 data provided in Table 2, a solution of the compound or conjugate was prepared in aqueous phosphate buffered saline (PBS) at a concentration of 100 micromolar (μM). The PBS solution was shaken with octanol. Thus, in Table 2, Log D7.4=Log (concentration in octanol/concentration in aqueous phosphate buffered saline (PBS))=Log[(initial concentration in PBS−final concentration in PBS)/final concentration in PBS], as the concentration in octanol is derived from the loss of compound from the aqueous PBS layer.

| Molecule | (Conc. in octanol)/(Conc. in PBS) | LogD7.4 |
| --- | --- | --- |
| Obeticholic acid-TPMP | 1,182.39 | 3.07 |
| CC(C)Cc1ccc(C(C)C(=O)[O-])cc1.COC1=C(OC)C(=O)C(CCCCCCCCCC[P+](c2ccccc2)(c2ccccc2)c2ccccc2)=C(C)C1=O [Ibuprofen-MitoQ, Ibuprofen MitoQ conjugate] | 9.94 | 1.00 |
| CCC1C(O)C2C3CCC(C(C)CCC(=O)[O-])C3(C)CCC2C2(C)CCC(O)CC12.COC1=C(OC)C(=O)C(CCCCCCCCCC[P+](c2ccccc2)(c2ccccc2)c2ccccc2)=C(C)C1=O [Obeticholic acid-MitoQ] | 624.00 | 2.80 |

Test system: not given
Assay: not given
Conditions: parent drug; cited from earlier work

| Molecule | LogP (Reported) |
| --- | --- |
| CC[C@H]1[C@@H](O)[C@@H]2[C@H](CC[C@]3(C)[C@@H]([C@H](C)CCC(=O)O)CC[C@@H]23)[C@@]2(C)CC[C@@H](O)C[C@@H]12 [Obeticholic acid, reference compound] | 3.5 |

Test system: not listed separately
Assay: Water solubility of PBICs
Format: physicochemical
Conditions: not given
Protocol: as §1

| Molecule | Water solubility, Drug [mg/L] |
| --- | --- |
| CC(C)Cc1ccc(C(C)C(=O)O)cc1 (centres unmarked) [Ibuprofen, reference compound] | 21.0 |

Same assay, conditions: MitoQ conjugate of the drug

| Molecule | Water solubility, MitoQ Conjugate |
| --- | --- |
| CC(C)Cc1ccc(C(C)C(=O)[O-])cc1.COC1=C(OC)C(=O)C(CCCCCCCCCC[P+](c2ccccc2)(c2ccccc2)c2ccccc2)=C(C)C1=O [Ibuprofen-MitoQ, Ibuprofen MitoQ conjugate] | Insoluble |

Same assay, conditions: TPMP conjugate of the drug

| Molecule | Water solubility, TPMP Conjugate |
| --- | --- |
| Captopril TPMP conjugate | 3,036,666.7 mg/L |
| Retinoic Acid-TPMP conjugate [Retinoic acid TPMP Conjugate] | 2,624,000.0 mg/L |
| Diflunisal-TPMP conjugate [Diflunisal TPMP Conjugate] | 1,518,333.3 mg/L |
| Treprostinil TPMP conjugate | 2,558,000.0 mg/L |
| (R)-3-Hydroxybutyric Acid-TPMP conjugate [R-3-Hydroxybutyric acid TPMP Conjugate] | 2,867,500.0 mg/L |
| Baclofen-TPMP conjugate [Baclofen TPMP Conjugate] | 13,500.0 mg/L |
| Latanoprost Acid-TPMP conjugate [Latanoprost TPMP Conjugate] | 2,187,777.8 mg/L |
| Indomethacin-TPMP conjugate [Indomethacin TPMP Conjugate] | 1,700,000.0 mg/L |
| Deoxycholic acid TPMP conjugate | 2,518,000.0 mg/L |
| L-Thyroxine TPMP conjugate [Levothyroxine TPMP Conjugate] | <400 mg/L |
| Travoprost Acid-TPMP conjugate [Travoprost TPMP Conjugate] | 1,921,666.7 mg/L |
| racemic 3-Hydroxybutyric Acid-TPMP conjugate [3-hydroxybutyric acid TPMP Conjugate] | 4,332,500.0 mg/L |

Same assay, conditions: parent drug by itself

| Molecule | Water solubility, Drug |
| --- | --- |
| C[C@H](CCC(=O)O)[C@H]1CC[C@H]2[C@@H]3CC[C@@H]4C[C@H](O)CC[C@]4(C)[C@H]3C[C@H](O)[C@]12C [Deoxycholic acid] | 43.6 mg/L |
| CC1=C(/C=C/C(C)=C/C=C/C(C)=C/C(=O)O)C(C)(C)CCC1 [Retinoic acid] | 1,000.0 mg/L |

Same assay, conditions: water; parent drug by itself

| Molecule | solubility [µg/mL] |
| --- | --- |
| NCC(CC(=O)O)c1ccc(Cl)cc1 (centres unmarked) [Baclofen] | 700 (≈ 3.28 mM) |
| CC(C)OC(=O)CCC/C=C\C[C@@H]1[C@@H](/C=C/[C@@H](O)COc2cccc(C(F)(F)F)c2)[C@H](O)C[C@@H]1O [Travoprost] | 7 (≈ 0.014 mM) |
| O=C(O)c1cc(-c2ccc(F)cc2F)ccc1O [Diflunisal] | 14.5 (≈ 0.058 mM) |
| COc1ccc2c(c1)c(CC(=O)O)c(C)n2C(=O)c1ccc(Cl)cc1 [Indomethacin] | 0.9 (≈ 0.00252 mM) |
| N[C@@H](Cc1cc(I)c(Oc2cc(I)c(O)c(I)c2)c(I)c1)C(=O)O [Levothyroxine] | 0.2 (≈ 0.000257 mM) |
| CCCCC[C@H](O)CC[C@@H]1[C@H]2Cc3cccc(OCC(=O)O)c3C[C@H]2C[C@H]1O [Treprostinil] | 7 (≈ 0.0179 mM) |
| CC(C)OC(=O)CCC/C=C\C[C@@H]1[C@@H](CC[C@@H](O)CCc2ccccc2)[C@H](O)C[C@@H]1O [Latanoprost] | 8 (≈ 0.0185 mM) |
| C[C@@H](O)CC(=O)O [R-3-Hydroxybutyric acid, (R)-3-hydroxybutyric acid] | 444000 (≈ 4260 mM) |
| C[C@H](CS)C(=O)N1CCC[C@H]1C(=O)O [Captopril] | 160000 (≈ 736 mM) |
| O=C(O)c1cc(/N=N/c2ccc(S(=O)(=O)Nc3ccccn3)cc2)ccc1O [Sulfasalazine] | 1 (≈ 0.00251 mM) |
| CC(O)CC(=O)O (racemic) [3-hydroxybutyric acid] | 444000 (≈ 4260 mM) |
